Experimental findings from the METLIN SMRT retention time set (Domingo-Almenara et al. 2019) are described below.

This data set can be described thus: gradient 5% acetonitrile 3 min, to 50% in 2 min, to 85% in 15 min, held 3 min, 100 µL/min. As to conditions: column: Zorbax Extend-C18 2.1 x 50 mm; eluents: water / acetonitrile, 0.1% formic acid. In short, it runs like this: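 Mixtures of ~100 pure standards were chromatographed on a Zorbax Extend-C18 column (2.1 × 50 mm, 1.8 μm) at 100 μL/min using water and acetonitrile, each with 0.1% formic acid. Detection used a quadrupole time-of-flight mass spectrometer in positive and negative ionization mode, and data collection spanned 3 months. Retention time was obtained from adduct peaks picked computationally and each checked manually.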
`Cc1nn2c(CNS(=O)(=O)c3ccc(C)c(Cl)c3)c(-c3ccccc3)nc2s1` had an RP-LC retention time of 962 s.
The same measure for `CCCCC(=O)N1CCCC(C)C1` (centres undefined): 878 s.
The same measure for `Cc1ccc(NC(=O)C2CCN(S(=O)(=O)c3ccc4c(c3)CCCC(=O)N4)CC2)cc1F`: 817 s; for `O=C(NCCOc1ccc2nnc(-c3ccccc3Cl)n2n1)c1cccs1`: 664 s; for `Cn1cc(-c2cc3n(n2)CCC(=O)N3CC(=O)Nc2cccc(F)c2)c2ccccc21`: 829 s.
For `CCc1nc2cc(-c3noc(-c4ccc(C)s4)n3)ccc2o1` the value was 1200 s; for `CCC(=O)N1CCc2cc(C(=O)NCCC3=CCCCC3)ccc21`, 891 s.
For the compound `COc1ccc(OC)c(CNC(=O)COc2nc(C)nc3oc(C)c(C)c23)c1`, the RP-LC retention time amounted to 866 s.
The compound `CN1CCN(CCNC(=O)CCCN2C(=O)C(c3ccccc3)Oc3cccnc32)CC1` (centres undefined) displayed an RP-LC retention time of 605 s.
For `CCc1cccc(NC(=O)C2CCN(S(=O)(=O)c3ccc4c(c3)sc(=O)n4C(C)C)CC2)c1` the value was 953 s.
The same measure for `CCNC(=O)N1CCCC(c2cccc(C(=O)NC3CCCC3)c2)C1` (centres undefined): 764 s; for `Cc1ccc(C)c(NC(=O)Cn2nc(N3CCCC(C)C3)c3ccccc3c2=O)c1` (centres undefined): 1160 s.
For `Clc1ccccc1-c1nc(-c2cccc(-c3ccn[nH]3)c2)no1` the value was 1040 s.
Regarding `COc1cccc(N2CCN(c3nnc(-c4nnc(C)o4)c4ccccc34)CC2)c1`, the RP-LC retention time was found to be 922 s.
The same measure for `CCCNC(=O)c1ccc2c(c1)CCCN2S(=O)(=O)CC`: 753 s; for `CC(=O)N(Cc1nn(C)c2c1CN(Cc1cccc(O)c1)CC2)c1ccccc1`: 592 s; for `O=C(CSCc1ccccc1)N1CCC(c2nnc(C(F)(F)F)o2)CC1`: 857 s.
The same measure for `COc1cc(C(C)=O)ccc1OCC(O)CN1CCN(c2ccccc2F)CC1` (centres undefined): 652 s.
The same measure for `CCn1ccc(C(=O)N2CCc3cc(-c4csc(C5CC5)n4)ccc32)n1`: 1050 s; for `O=C(C1CCN(S(=O)(=O)c2cc(-c3noc(C4CC4)n3)cs2)CC1)N1CCCC1`: 829 s.
On to `CN(C)S(=O)(=O)c1ccc(Cl)c(-c2nnc(-c3ccccc3)o2)c1`, for which the RP-LC retention time was 983 s.
For `O=C(NCc1ccc(Cl)cc1)c1cccn1-c1cccnc1` the value was 742 s.
Compound `CCc1nnc2ccc(-c3noc(-c4ccc(C)c(C)c4)n3)cn12` registered an RP-LC retention time of 1140 s.
Compound `Cc1cc(Cl)ccc1S(=O)(=O)N1CCc2c(c(-c3nc(C4CC4)no3)nn2C)C1` showed an RP-LC retention time of 1070 s.
For `COc1ccc(-c2cc3c(=O)n(Cc4noc(CN5CCC(C)CC5)n4)ccn3n2)cc1` the value was 664 s; for `CCOc1ccccc1-c1nc(C2CC(=O)N(c3ccc(CC)cc3)C2)no1` (centres undefined), 1130 s.
The same measure for `CN1CCN(C(=O)c2cc3n(n2)CC(C)(C(=O)NCc2ccccc2)N(C)C3=O)CC1` (centres undefined): 572 s; for `COc1cccc(C2CC(c3ccc(Cl)cc3)=NC3(CCN(C)CC3)N2)c1O` (centres undefined): 606 s.
For `Cc1ccc(-c2ccc3nn(Cc4nc(-c5ccc(Br)cc5)no4)c(=O)n3n2)cc1`, the RP-LC retention time worked out at 1100 s.
The same measure for `COC(=O)c1ccc(OC)c(Cn2cnc3c(-c4cccc(F)c4)csc3c2=O)c1`: 1080 s; for `CNc1ncnc2c1cnn2C1CCCCO1` (centres undefined): 635 s; for `Cc1ccn2c(Nc3ccc4c(c3)OCO4)c(-c3ccc(N(C)C)cc3)nc2c1`: 734 s.
On to `O=C(c1nc(Cn2cnc3ccccc3c2=O)no1)N1CCN(Cc2ccc3c(c2)OCO3)CC1`, for which the RP-LC retention time stood at 691 s.
The same measure for `CCc1noc(NC(C)=O)c1-c1ccc(C)c(S(=O)(=O)Nc2ccc(Br)c(C)c2)c1`: 951 s; for `CCn1nc(N2CCCC(NS(=O)(=O)c3cccc4cccnc34)C2)ccc1=O` (centres undefined): 736 s.
The same measure for `CC(C)(C)C(=O)Nc1nnc(SCc2nnc(-c3ccc4c(c3)OCO4)o2)s1`: 843 s; for `CCOc1ccccc1C(=O)Nc1c(-c2ccc(OC)cc2)nc2cc(C)ccn12`: 732 s.
`O=C(Cn1c(=O)n(-c2ccc(F)cc2)c2ncccc21)NC1CCCC1` yielded an RP-LC retention time of 773 s.
Take `COCCN1[C@@H]2CCN(Cc3ccc(C#N)cc3)C[C@@]2(C(=O)N2CCOCC2)CCS1(=O)=O`: the RP-LC retention time was found to be 641 s.
The same measure for `NS(=O)(=O)c1ccc(NS(=O)(=O)c2cc(-c3ccno3)cs2)cc1`: 710 s; for `CCCCn1cc(S(=O)(=O)NCc2cccc(C)c2)c2cccnc21`: 1000 s.
In the case of `Cc1cc(C(=O)Nc2nc(-c3cc4ccccc4o3)cs2)on1`, the RP-LC retention time was 948 s.
For `CN1CCC(NC(=O)C2CCc3sc(C(=O)N4CCCCC4)cc3C2)CC1` (centres undefined) the value was 587 s.
For `CCOc1ccc(NC2=NS(=O)(=O)C(c3ccc(OC)cc3)=C2C)cc1` the value was 940 s; for `CCCn1cc(CCNS(=O)(=O)c2ccc(F)cc2F)c2cccnc21`, 848 s; for `Cc1ccccc1Cn1nc(-c2nc(C(C)(C)C)no2)ccc1=O`, 1120 s.
The same measure for `CN(CCc1noc(COc2ccc(Cl)cc2)n1)C(=O)Nc1cccc(F)c1`: 984 s; for `CCc1nc2cc(-c3noc(Cc4ccc(OC)c(OC)c4)n3)ccc2o1`: 956 s.
In the case of `COc1ccc(-c2cn3cccnc3n2)cc1NC(=O)c1c(F)cccc1F`, the RP-LC retention time was 653 s.
The same measure for `COc1ccc(OC)c(C2CN(C(=O)C3CCCC3)CC2C(=O)N2CCCCC2)c1` (centres undefined): 831 s; for `COc1ccc(C(CC(=O)N2CCN(c3ccccn3)CC2)N2Cc3ccccc3C2=O)cc1OC` (centres undefined): 612 s.
The same measure for `CCc1nc(-c2c(C)cc(C)nc2NC(=O)c2cc(C)cc(C)c2)no1`: 605 s; for `O=c1n(Cc2c(F)cccc2Cl)nc2ccc(S(=O)(=O)N3CCCCCC3)cn12`: 996 s.
The compound `CC(C)CCNC(=O)C1(C)CN(S(=O)(=O)c2ccccc2)CC(=O)N1Cc1ccccc1` (centres undefined) returned an RP-LC retention time of 973 s.
`Cc1ccc(C)c(N2CCN(c3ccnc(SCC(=O)Nc4ccccc4)n3)CC2)c1` had an RP-LC retention time of 860 s.
For `Cc1ccc(F)cc1NS(=O)(=O)c1cc(-c2[nH]ncc2C(=O)N(C)C)oc1C` the value was 706 s; for `CCCc1noc(-c2cccnc2N2CCCN(Cc3ccccc3C)CC2)n1`, 740 s.
`CCC(C)NC(=O)c1cnn(-c2ccc(-c3nc(C)no3)cn2)c1C` (centres undefined) came in with an RP-LC retention time of 821 s.
The same measure for `CC(C)(C)NC(=O)CCc1c(-c2ccc(Br)cc2)nc2ccccn12`: 681 s.
